The values below are quoted from earlier work in patent US20170056383A1, “TOPICAL HERPES PAIN TREATMENT AND COMPOSITION” (priority 2015, published 2017).

In the series the test system is Herpes Simplex Virus lesions. Conditions: applied to the lesion.

For `CCOC(=O)c1ccc(N)cc1` [benzocaine], the active working time entry is reported as “about 15 minutes”.
